Like-named read-outs stand apart in the source and are kept apart here.
Columns and labels:
[1] = system: knockout mice lacking LDLR; experiment: Lipid lowering in knockout mice lacking LDLR; type: in vivo
[2] = target: T1, peroxisome proliferator-activated receptor-δ (PPARδ) (Homo sapiens, UniProt Q03181); experiment: PPARδ agonist potency; type: biochemical
T1 sequence (Q03181 1-441): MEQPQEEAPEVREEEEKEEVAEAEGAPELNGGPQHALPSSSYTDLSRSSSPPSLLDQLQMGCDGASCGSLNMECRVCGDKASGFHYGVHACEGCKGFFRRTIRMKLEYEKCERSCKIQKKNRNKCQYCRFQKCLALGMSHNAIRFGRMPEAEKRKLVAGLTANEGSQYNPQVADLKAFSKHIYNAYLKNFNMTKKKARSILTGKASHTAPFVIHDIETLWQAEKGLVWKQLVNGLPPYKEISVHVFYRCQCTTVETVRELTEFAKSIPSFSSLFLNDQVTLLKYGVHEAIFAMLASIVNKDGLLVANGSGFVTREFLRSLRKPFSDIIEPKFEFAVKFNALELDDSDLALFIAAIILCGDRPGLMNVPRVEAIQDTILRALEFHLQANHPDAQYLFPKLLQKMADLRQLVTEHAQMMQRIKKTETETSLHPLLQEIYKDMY
From the text: (§1) PPARδ activation stimulates fatty acid oxidation and utilization, improves plasma lipid and lipoprotein metabolism, glucose utilization, and mitochondrial respiration, and preserves stem cell homeostasis.

LDL particle size = conditions: pattern B <25.75 nm, I 25.75-26.34 nm, A >26.34 nm; US 2010-0152295; cited from earlier work
PPARα = target: T2, PPARα (Homo sapiens, UniProt Q07869); experiment: Specificity for PPARδ compared with PPARα; type: biochemical
T2 sequence (Q07869 1-468): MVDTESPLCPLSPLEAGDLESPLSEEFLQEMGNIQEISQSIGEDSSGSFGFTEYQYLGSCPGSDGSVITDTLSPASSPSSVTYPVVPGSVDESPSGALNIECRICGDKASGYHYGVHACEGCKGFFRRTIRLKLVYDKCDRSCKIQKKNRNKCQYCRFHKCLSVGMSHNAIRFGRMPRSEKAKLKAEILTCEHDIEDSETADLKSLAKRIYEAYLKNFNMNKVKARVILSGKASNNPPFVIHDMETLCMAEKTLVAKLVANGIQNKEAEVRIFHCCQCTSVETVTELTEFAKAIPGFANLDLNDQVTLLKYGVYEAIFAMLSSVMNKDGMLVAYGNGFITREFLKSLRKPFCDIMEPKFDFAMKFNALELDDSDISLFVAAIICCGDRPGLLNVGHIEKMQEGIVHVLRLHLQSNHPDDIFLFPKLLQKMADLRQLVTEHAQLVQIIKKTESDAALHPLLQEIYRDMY
From the text: as §1

subjects with HoFH = experiment: Example 1: study with MBX-8025 in HoFH; type: in vivo, human; conditions: MBX-8025 L-lysine dihydrate salt 50, 100, or 200 mg/day
Description: Subjects are permitted their usual other medications, including lipid-lowering treatments. […] MRIs of the subjects' livers are taken every 4 weeks during the study and 4 weeks after study completion, to determine hepatic fat. At each visit, after a 12-hour fast, blood is drawn and urine collected; and a standard metabolic panel, complete blood count, and standard urinalysis are performed. Blood is analyzed for TC, HDL-C, LDL-C, VLDL-C, TG, and apoB. The subjects also maintain health diaries, which are reviewed at each visit.

[3] = system: subjects with mixed dyslipidemia; conditions: cited from earlier work; for reduction of LDL-C: 100 mg/day; for reduction of alkaline phosphatase: control group 4%
patients with HoFH [4] = conditions: cited from earlier work
[5] = system: healthy volunteers with hypercholesterolemia; conditions: cited from earlier work
patients with HeFH [6] = conditions: cited from earlier work
[7] = system: patients with hypercholesterolemia; conditions: week 12; sc 50, 100, 150 mg twice monthly or 200, 300 mg once monthly; cited from earlier work
patients with HoFH [8] = conditions: added to maximally tolerated lipid lowering medications in HoFH patients; cited from earlier work
[9] = system: patients with HoFH, HeFH, severe hyperlipidemia, high-risk coronary heart disease; conditions: human, in vivo; cited from earlier work
[10] = in vivo, cited from earlier work
apoB mRNA = conditions: HepG2, Hep3B, human and cynomolgus monkey primary hepatocytes; cited from earlier work
patients with HeFH [11] = conditions: cited from earlier work; remark: listed apart in the source
[12] = system: hypercholesterolemic subjects; conditions: cited from earlier work
[13] = alone and in combination with atorvastatin, 8 weeks

For `CCO[C@H](COc1ccc(C(F)(F)F)cc1)CSc1ccc(OCC(=O)O)c(C)c1` [MBX-8025, (R)-2-(4-((2-ethoxy-3-(4-(trifluoromethyl)phenoxy)propyl)thio)-2-methylphenoxy)acetic acid], the “LDLR dependence of LDL-C lowering” value [1] is given as “do not require an effective LDLR to lower LDL-C and improve other lipid parameters”, the EC50 [2] is given as 2 nM and the “LDL particle size pattern conversion” value (LDL particle size) is given as “converts LDL particle size pattern I to pattern A; and from pattern B to pattern I or A”. For the same molecule, the “specificity for PPARδ compared with PPARα” value (PPARα) was greater than 600 fold, the “effect on TC, LDL-C, VLDL-C, TG, apoB and HDL-C” value (subjects with HoFH) was “dose-dependent lowering of TC, LDL-C, VLDL-C, TG and apoB, and raising of HDL-C” and the “reduction of LDL-C” value ([3]; tertile with the highest starting LDL-C levels (187-205 mg/dL)) was 35%. For the same molecule, the “reduction of LDL-C” value ([3]; total population treated) was 22%, the “decrease of LDL-S/VS” value ([3]; 8 weeks) was 40-48% and the “increase of LDL-L” value ([3]; 8 weeks) was 34-44%. The “reduction of apoB 100 compared to placebo” value ([3]; MBX-8025 50 or 100 mg alone and in combination with atorvastatin 20 mg, 8 weeks) was 20-38%, the “raising of HDL-C” value [3, 13] was 1-12% and the “reduction of LDL compared to placebo” value [3, 13] was 18-43%. For the same molecule, the “reduction of free fatty acids compared to placebo” value [3, 13] was 16-28%, the “reduction of high-sensitivity C-reactive protein compared to placebo” value [3, 13] was 43-72% and the “reduction of non-HDL-C compared to placebo” value [3, 13] was 18-41%. The “reduction of triglycerides compared to placebo” value [3, 13] was 26-30%, the “reduction of γ-glutamyl transpeptidase” value ([3]; control group 3%) was 24-28% and the “reduction of alkaline phosphatase” value [3] was 32-43%. The “insulin sensitivity (HOMA-IR, fasting plasma glucose, insulin)” value ([3]; in vivo) was “increases insulin sensitivity”, the “reduction of the percentage of subjects meeting the criteria for metabolic syndrome” value ([3]; in vivo) was greater than 2 fold and the safety and tolerability ([3]; in vivo) was “safe and generally well-tolerated”. The serum aminotransferases ([3]; in vivo) was “reducing serum aminotransferases” and the “waist circumference and lean body mass” value ([3]; in vivo) was “trends towards a decrease in waist circumference and increase in lean body mass”.

For `CC(C)c1c(C(=O)Nc2ccccc2)c(-c2ccccc2)c(-c2ccc(F)cc2)n1CC[C@@H](O)C[C@@H](O)CC(=O)O` [atorvastatin, reference compound], the “decrease of LDL-L” value ([3]; 8 weeks) is listed as 30%, the “decrease of LDL-S/VS” value ([3]; 8 weeks) is listed as 25% and the “increase of γ-glutamyl transpeptidase” value ([3]; 8 weeks) is listed as 2%. For the same molecule, the “reduction of alkaline phosphatase” value [3] was 6%.

For `O=C(NC1CCN(CCCCC2(C(=O)NCC(F)(F)F)c3ccccc3-c3ccccc32)CC1)c1ccccc1-c1ccc(C(F)(F)F)cc1` [lomitapide, N-(2,2,2-trifluoroethyl)-9-(4-(4-(4′-(trifluoromethyl)-[1,1′-biphenyl]-2-ylcarboxamido)piperidin-1-yl)butyl)-9H-fluorene-9-carboxamide], the “patients reporting gastrointestinal adverse reactions” value (patients with HoFH [4]; 27 of 29 patients, Phase 3 trial) is given as 93%, the “patients reporting vomiting, dyspepsia and abdominal pain (each)” value (patients with HoFH [4]; AEs reported by 8 or more of 29 patients) is given as no less than 28% and the patients reporting diarrhea (patients with HoFH [4]; Phase 3 trial, 29 patients) is given as 79%. For the same molecule, the patients reporting nausea (patients with HoFH [4]; Phase 3 trial, 29 patients) was 65%, the “patients who discontinued the trial for AEs” value (patients with HoFH [4]; of the 29 patients) was “Five” and the “reduction of LDL-C” value [5] was “up to 65%”.

For Alirocumab: anti-PCSK9 antibody, the “reduction in LDL-C” value (patients with HeFH [6]; 150 mg/2 weeks sc) is listed as 68%, the “reduction in LDL-C” value (patients with HeFH [6]; 150 mg/4 weeks sc) is listed as 29% and the tolerability (patients with HeFH [6]; in vivo) is listed as “well tolerated”.

In the case of Bococizumab: anti-PCSK9 antibody, the “effect on LDL-C” value [7] is given as “significant reductions in LDL-C at week 12”.

In the case of mipomersen, the “reduction of LDL-C” value (patients with HoFH [8]) is listed as 25%, the “alanine aminotransferase ≧3× upper limit of normal” value [9] is listed as 10% and the “aspartate aminotransferase ≧3× upper limit of normal” value [9] is listed as 16%. For the same molecule, the “flu-like symptoms (such as fatigue, fever, and chills)” value [9] was 30%, the injection site reactions [9] was 84% and the “patients who discontinued for an adverse event or serious adverse event” value [9] was 18%. The “patients who discontinued for other reasons” value [9] was 4%, the “patients who discontinued for patient withdrawal” value [9] was 6% and the “absorption time to maximum concentration” value ([10]; sc) was 3 to 4 h. For the same molecule, the distribution half-life ([10]; sc) was 2 to 5 h, the elimination half-life ([10]; sc) was 1-2 months and the “time to steady-state plasma trough” value [10] was no more than 6 months. For the same molecule, the “effect on apoB mRNA, protein, and secreted protein” value (apoB mRNA) was “selectively reduced apoB mRNA, protein, and secreted protein in a concentration- and time-dependent manner”.

B1: evolocumab: anti-PCSK9 antibody (antibody, chains of the INN, looked up, V domains shown)
VH: EVQLVQSGAEVKKPGASVKVSCKASGYTLTSYGISWVRQAPGQGLEWMGWVSFYNGNTNYAQKLQGRGTMTTDPSTSTAYMELRSLRSDDTAVYYCARGYGMDVWGQGTTVTVSS
VL: ESALTQPASVSGSPGQSITISCTGTSSDVGGYNSVSWYQQHPGKAPKLMIYEVSNRPSGVSNRFSGSKSGNTASLTISGLQAEDEADYYCNSYTSTSMVFGGGTKLTVL
In the case of B1, the “effect on LDL-C relative to placebo” value (patients with HeFH [11]; 140 mg every 2 weeks or 420 mg every month sc) is listed as “Significant reductions in LDL-C”, the “muscle-related AEs” value (patients with HeFH [11]; in vivo) is listed as 5% and the nasopharyngitis (patients with HeFH [11]; in vivo) is listed as 9%. For the same molecule, the tolerability (patients with HeFH [11]; in vivo) was “well tolerated” and the “reduction of LDL-C levels” value [12] was “more than 50%”.

— US20150139987A1, “TREATMENT OF HOMOZYGOUS FAMILIAL HYPERCHOLESTEROLEMIA” (CymaBay Therapeutics, Inc., priority 2013, published 2015)
